In article doi:10.1101/2024.09.27.615266v1 (biorxiv, 2024):

Assays:
[1] = molecular target: T1, CYP2A6 (commercial, Vivid kit Baculosomes) (Homo sapiens, UniProt P11509); assay: fluorescent 3-cyano coumarin turnover, Morrison tight-binding fit; type: biochemical
T1 sequence (P11509 1-494): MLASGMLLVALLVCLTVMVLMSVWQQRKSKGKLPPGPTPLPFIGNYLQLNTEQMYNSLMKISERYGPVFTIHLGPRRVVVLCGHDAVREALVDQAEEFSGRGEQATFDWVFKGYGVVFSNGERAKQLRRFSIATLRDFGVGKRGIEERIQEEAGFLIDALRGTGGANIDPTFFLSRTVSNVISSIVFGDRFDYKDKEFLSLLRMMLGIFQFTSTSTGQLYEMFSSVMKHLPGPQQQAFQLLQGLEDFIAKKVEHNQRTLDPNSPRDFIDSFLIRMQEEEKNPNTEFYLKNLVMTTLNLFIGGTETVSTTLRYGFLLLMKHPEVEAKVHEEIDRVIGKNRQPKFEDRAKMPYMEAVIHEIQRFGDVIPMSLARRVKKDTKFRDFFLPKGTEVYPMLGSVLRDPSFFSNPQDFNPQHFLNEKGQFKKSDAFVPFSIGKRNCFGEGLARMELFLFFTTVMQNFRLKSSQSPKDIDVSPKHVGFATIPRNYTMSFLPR

purified protein = substrate: N#Cc1cc2ccccc2oc1=O; assay: purified protein; type: biochemical, Homo sapiens; details: 10 nM CYP2A6, 30 μM NADPH, 0.25-32 μM substrate

Molecule `CCCCCC(O)/C=C/C=O` (centres unmarked) [HNE] has a Ki [1] of 208 ± 35.4 µM.

B1: CYP2A6 (commercial, Vivid kit Baculosomes) (Homo sapiens) (protein)
chain: T1 sequence (P11509 1-494)
B1 showed a Km (purified protein) of 12 ± 6 µM.
